Consider 13 molecules from patent US7098210B2, “2h-pyridazine-3-one derivatives, pharmaceutical compositions containing the same and a process for the preparation of the active ingredient” (Egis Gyógyszergyár Rt., priority 2001, dated 2006).

One data set has as its system mice. In words: Inhibition of hypermotility induced by phencyclidine (PCP). It counts as in vivo. The note with it: Mus musculus, 1 h, sc., 3 mg/kg phencyclidine intraperitoneally 60 minutes after treatment, read-out: ID50 in mg/kg sc.
Data set [1] concerns male Wistar rats. In words: Inhibition of conditioned avoiding response (CAR), shuttle-box. It counts as in vivo, rat. The conditions noted are these: compound given 1 hour before the series of experiment, 50% inhibition dose. How it is done: 1.1 Inhibition of Conditioned Avoiding Response (CAR)
The antipsychotic (neuroleptic) effect was measured by determining the inhibition of the learned conditioned avoiding reflex. At the beginning of teaching, male Wistar rats of 120 to 150 g body weight were used for the experiments. The experimental apparatus was the so called shuttle-box consisting of two rooms of 24 cm×24.5 cm×23 cm size separated from each other by a wall. The two rooms were connected by a gate of 6 cm×9 cm size. During the test, the task of the animals was to pass from one room to the other through the gate in case of a suitable warning stimulus, thus, avoiding the punishing (unconditioned) stimulus. The warning (conditioned) stimulus appeared in the room where the animal was staying. The conditioned stimulus (CS) was a gleaming (1 Hz) white light lasting for 15 seconds. The unconditioned stimulus (US) was a randomized electric shock to the sole with an intensity of 0.6 mA which appeared in the last 5 seconds of the conditioned stimulus. Passing from one room of the shuttle-box to the other during the conditioned stimulus was considered as avoiding response, while passing during the unconditioned stimulus was considered as escaping response. Both responses stopped the actual stimulus, and the trial was finished. The intertrial interval (ITI) was 15 seconds. 80 trials were performed on a day. The learning performance was measured as the ratio of the number of the successful avoiding responses to the total number of trials in percentage. The effect of the neuroleptics was determined on the animals showing a performance of at least 75% after the stabilization of the conditioned reflex. The test compounds were administered to the rats once weekly, 1 hour before the series of experiment. When evaluating the effect of the neuroleptics in each group, the performance of the animals on the day before was used as control. […] These values are given in Table I. Chlorpromazine [2-chloro-10-(3dimethylaminopropyl)phenothiazine] and clozapine [8-chloro-11-(4methyl-1-piperazinyl)-5H-dibenzo[b,e][1,4]diazepine] were used as the reference substance.

For data set [2], the system named is male NMRI mice. Put plainly: Inhibition of apomorphine induced climbing on mouse. It counts as in vivo. The conditions noted are these: 1 h, po., apomorphine hydrochloride subcutaneously 60 min after treatment. How it is done: (§1) 1.2 Inhibition of Apomorphine Stereotypy and Climbing on Mouse
(§2) Male NMRI mice of 20 to 24 g body weight were used in the experiments. The animals were treated with the carrier and the test substance (20 ml of volume/kg body weight), respectively, then 30 minutes later, for habituation, they were placed into wire screen cages of 12 cm×12 cm×12 cm size which could be covered by plexyglass plates. After 30 minutes, […] of apomorphine hydrochloride were administered to the mice in a volume of 10 ml/kg, subcutaneously. The measurement of the stereotyped behaviour was begun at once after the treatment with apomorphine and continued for 25 minutes. The measurement was performed by means of a scale having five grades: • 0 point: normal behaviour corresponding to that of the control animals. • 1 point: permanent exploration activity, smelling or moving the head sideways from time to time. • 2 points: intensive continuous head movement or smelling, periodical exploration activity. • 3 points: licking, biting or gnawing from time to time, alternating with intensive smelling or head movement, locomotor activity lasting for a very short time. • 4 points: continuous intensive licking and/or gnawing in the same place without any locomotor or exploration activity.
The posture when the mouse climbed up on the vertical wall with at least three legs was considered as climbing. The evaluation was performed in the last ten minutes of the observation on the basis yes/no (+/−).
The frequency was calculated in each group, then the effect was determined in percentage considering the result obtained for the control group as 100%.
(§3) In this case again chlorpromazine and clozapine were used as the reference substance.

Data set [3] relates to male NMRI mice. In words: Inhibition of apomorphine induced stereotypy on mouse. It counts as in vivo. The note with it: apomorphine hydrochloride subcutaneously 60 min after treatment. The protocol:
as §1, §2
Evaluation of stereotypy: in case of each animal, the highest point value obtained during the observation was taken into consideration and recorded, respectively. From the maximum point value, median was calculated for each group which was related to the median of the control group to calculate the effect in percentage.
as §3

Data set [4] relates to male Wistar rats. Put plainly: Cataleptogenous effect (method of Morpurgo). It counts as in vivo, rat. The note with it: for Ratio Cat/CAR (MED/ID50): catalepsy MED divided by CAR ID50; for MED in mg/kg po.: rats, minimum effective dosis inducing catalepsy. The source says:
The cataleptogenous effect was studied according to the method of Morpurgo [Morpurgo, C., Arch. Int. Pharmacodyn., 137, 84 ([…])]. Male Wistar rats of 220 to 240 g body weight have been used for the examinations. The fore-feet of the rats were placed on a gum stopper, one by one, and it was observed how the animal tolerated the unusual posture. The normal (non-cataleptic) animal removes the foot from the stopper during the measuring time of 10 seconds. If the animal keeps the foot on the stopper during the measuring time, this stiff state accompanied by myotonia is evaluated as catalepsy.

Data set [5] has as its system isolated right ventricular papillary muscle of the rabbit. Put plainly: Cardiotoxic effect: effective refractory period (ERP) in vitro. The note with it: for % change of ERP (1 μM): papillary muscle paced at 1 Hz, vs. baseline. The protocol:
The cardiotoxic effect was determined in isolated right ventricular papillary muscle of the rabbit in vitro.
The modified method of Hackett et al., 1990 was used (Hacket, A. M., Mc Donald S. J., P., Schweingruber, F. and Gartwaite, S. M.: Simple in vitro method to characterize antiarrhythmic agents J. Pharmacol. Methods 23, 107–116, 1990).
The effective refractory period (ERP) was measured in isolated right ventricular papillary muscle of the rabbit in vitro.
The contractions of papillary muscle preparations obtained from New Zealand rabbits weighing 2.5–3.2 kg were evaluated. The contractions (isometrically paced at 1 Hz) were recorded by 4-channel Hugo Sachs apparatus. The effects of the test compounds or references were measured in 1 μM concentration.

Bounds are passed on as bounds.

For `Cn1ncc(Cl)c(NCCN2CCC(c3noc4cc(F)ccc34)CC2)c1=O` [Example 1, 4-{2-[4-(6-fluoro-1,2-benzisoxazole-3-yl)piperidine-1-yl]ethyl-amino}-5-chloro-2-methyl-2H-pyridazine-3-one], the melting point – broadly, the temperature of the solid-liquid transition – was in the range of 108 to 109 °C. Further, in the data set on mice, the ED50 was found to be 0.4 mg/kg. For the same molecule, in the data set on male Wistar rats [1], the “Conditioned reflex, ID50 in mg/kg” value worked out at 0.7 mg/kg. Moreover, the ED50 with male NMRI mice [2] is 0.3 mg/kg. In addition, the “Inhibition of stereotypy, ID50 in mg/kg po.” value (“Inhibition of stereotypy, ID50” below) in the data set with male NMRI mice [3] stood at 0.4 mg/kg.
The molecule `Cn1ncc(Cl)c(NCCCN2CCC(c3noc4cc(F)ccc34)CC2)c1=O` [Example 2, 4-{3-[4-(6-fluoro-1,2-benzisoxazole-3-yl)piperidine-1-yl]propyl-amino}-5-chloro-2-methyl-2H-pyridazine-3-one] gave a melting point of 117 to 119 °C. Besides, the “Conditioned reflex, ID50 in mg/kg” value with male Wistar rats [1] was 5.8 mg/kg. In addition, the ED50 in the data set on male NMRI mice [2] came to 0.6 mg/kg. In the data set with male NMRI mice [3], the “Inhibition of stereotypy, ID50” value was 2.0 mg/kg.
Consider `O=c1[nH]ncc(Cl)c1NCCCN1CCC(c2noc3cc(F)ccc23)CC1` [Example 3, 4-{3-[4-(6-fluoro-1,2-benzisoxazole-3-yl)piperidine-1-yl]propyl-amino}-5-chloro-2H-pyridazine-3-one], for which the melting point was in the range of 198 to 200 °C. The ED50 in the data set with male NMRI mice [2] was determined as 0.8 mg/kg. In the data set on male NMRI mice [3], the “Inhibition of stereotypy, ID50” value is 1.2 mg/kg.
For the molecule `Cn1ncc(NCCN2CCC(c3noc4cc(F)ccc34)CC2)c(Cl)c1=O` [Example 4, 4-chloro-5-{2-[4-(6-fluoro-1,2-benzisoxazole-3-yl)piperidine-1-yl]ethyl-amino}-2-methyl-2H-pyridazine-3-one], in the data set on male Wistar rats [4], the “Ratio Cat/CAR (MED/ID50)” value is recorded as “about 6” and the “MED in mg/kg po.” value was 3 mg/kg. In the data set with mice, the ED50 was found to be 0.07 mg/kg. Moreover, the “Conditioned reflex, ID50 in mg/kg” value in the data set on male Wistar rats [1] lay within 0.3 to 0.5 mg/kg. Moreover, the “% change of ERP (1 μM)” value in data set [5] was 11.1 ± 1.7%. The molecule further had an ED50 in the data set with male NMRI mice [2] of 0.06 mg/kg. The “Inhibition of stereotypy, ID50” value in the data set with male NMRI mice [3] is 0.2 mg/kg.
Molecule `Cn1ncc(NCCCN2CCC(c3noc4cc(F)ccc34)CC2)c(Cl)c1=O` [Example 5, 4-chloro-5-{3-[4-(6-fluoro-1,2-benzisoxazole-3-yl)piperidine-1-yl]propyl-amino}-2-methyl-2H-pyridazine-3-one] showed a melting point of 200 to 202 °C. Besides, in the data set on male Wistar rats [4], the “Ratio Cat/CAR (MED/ID50)” value is reported as greater than 3 and the “MED in mg/kg po.” value was 10 mg/kg. Further, the ED50 in the data set on mice amounted to 0.46 mg/kg. Further, the “Conditioned reflex, ID50 in mg/kg” value in the data set on male Wistar rats [1] is “≦3.0 mg/kg”. Further, the “% change of ERP (1 μM)” value in data set [5] was 5.3 ± 0.4%. Also, in the data set on male NMRI mice [2], the ED50 was 0.6 mg/kg. Further, the “Inhibition of stereotypy, ID50” value in the data set on male NMRI mice [3] is reported as 2.0 mg/kg.
Regarding `Cn1ncc(NCCN2CCC(c3noc4cc(F)ccc34)CC2)cc1=O` [Example 6, 5-{2-[4-(6-fluoro-1,2-benzisoxazole-3-yl)piperidine-1-yl]ethyl-amino}-2-methyl-2H-pyridazine-3-one], the melting point fell in the range of 200 to 202 °C. Moreover, the “MED in mg/kg po.” value with male Wistar rats [4] was greater than 30 mg/kg. In the data set with mice, the ED50 turned out to be 0.9 mg/kg. Also, the “% change of ERP (1 μM)” value in data set [5] is 6.1 ± 1.9%.
As to `Cn1ncc(NCCCN2CCC(c3noc4cc(F)ccc34)CC2)cc1=O` [Example 7, 5-{3-[4-(6-fluoro-1,2-benzisoxazole-3-yl)piperidine-1-yl]propyl-amino}-2-methyl-2H-pyridazine-3-one], the melting point is 163 to 165 °C. Further, in the data set on male Wistar rats [4], the “MED in mg/kg po.” value is listed as roughly 30 mg/kg. The ED50 in the data set on mice stood at 0.4 mg/kg.
For `O=c1[nH]ncc(NCCN2CCC(c3noc4cc(F)ccc34)CC2)c1Cl` [Example 8, 5-{2-[4-(6-fluoro-1,2-benzisoxazole-3-yl)piperidine-1-yl]ethyl-amino}-4-chloro-2H-pyridazine-3-one], the melting point lay in the range of 229 to 231 °C. Further, in the data set with male Wistar rats [4], the “MED in mg/kg po.” value is listed as roughly 10 mg/kg. In addition, the ED50 in the data set with mice came out at 0.2 mg/kg. Further, the “% change of ERP (1 μM)” value in data set [5] was found to be 1.5 ± 1.5%.
`O=c1cc(NCCN2CCC(c3noc4cc(F)ccc34)CC2)cn[nH]1` [Example 9, 5-{2-[4-(6-fluoro-1,2-benzisoxazole-3-yl)piperidine-1-yl]ethyl-amino}-2H-pyridazine-3-one]: the melting point was in the range of 97 to 99 °C. In addition, the “MED in mg/kg po.” value with male Wistar rats [4] is recorded as greater than 10 mg/kg. For the same molecule, the ED50 in the data set with mice turned out to be 1.4 mg/kg. The “% change of ERP (1 μM)” value in data set [5] came to 0.4 ± 1.1%.
In the case of `COc1cc(C(C)=O)ccc1OCCCN1CCC(c2noc3cc(F)ccc23)CC1` [Iloperidone, reference compound], the “cardiotoxic effect (significant prolongation of ERP)” value in data set [5] (1 μM concentration) is “considerable and significant cardiotoxic potential”. In addition, the “% change of ERP (1 μM)” value in data set [5] stood at 31.9 ± 7.8 %.
In the case of `CN(C)CCCN1c2ccccc2Sc2ccc(Cl)cc21` [chlorpromazine, 2-chloro-10-(3dimethylaminopropyl)phenothiazine, reference compound], the “Conditioned reflex, ID50 in mg/kg” value in the data set with male Wistar rats [1] is listed as 13.2 mg/kg. This molecule also gave an ED50 with male NMRI mice [2] of 6.1 mg/kg. Also, the “Inhibition of stereotypy, ID50” value in the data set on male NMRI mice [3] came out at 6.8 mg/kg.
Turning to `CN1CCN(C2=Nc3cc(Cl)ccc3Nc3ccccc32)CC1` [clozapine, 8-chloro-11-(4methyl-1-piperazinyl)-5H-dibenzo[b,e][1,4]diazepine, reference compound], the values for the ED50 in the data set on mice and with male NMRI mice [2] were 2.9 mg/kg and 11.8 mg/kg, respectively. Also, the “Conditioned reflex, ID50 in mg/kg” value in the data set with male Wistar rats [1] came to 21.3 mg/kg. Besides, the “Inhibition of stereotypy, ID50” value in the data set with male NMRI mice [3] worked out at 35.4 mg/kg.
Regarding `O=C(CCCN1CCC(O)(c2ccc(Cl)cc2)CC1)c1ccc(F)cc1` [haloperidol, 4-(4-chlorophenyl-4-hydroxy-1-piperidinyl)-1-(4-fluorophenyl)-1-butanone, reference compound], in the data set with male Wistar rats [4], the “MED in mg/kg po.” value is recorded as 1 mg/kg. Besides, the ED50 in the data set with mice was determined as 1.2 mg/kg.
